{"source": "patent US12077503B2", "about": "“Substituted cyclic amides and their use as herbicides” (FMC CORPORATION, priority 2015, dated 2024)", "format_in_all_cases": "in vivo", "key": {"[1]": {"system": "barnyardgrass (Echinochloa crus-galli)", "experiment": "Test A postemergence", "conditions": "Echinochloa crus-galli, post-emergence, 240 h, postemergence", "outline": "(§1)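 Seeded soil received test chemicals as a preemergence directed spray, and seedlings at one to two leaves, 2–10 cm tall, received them postemergence, in a non-phytotoxic, surfactant-containing solvent mixture. Pots were held in a greenhouse for approximately 10 d, then rated for injury from 0, no effect, to 100, complete control.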"}, "[2]": {"system": "pigweed (Amaranthus retroflexus)", "experiment": "Test A postemergence", "conditions": "Amaranthus retroflexus, post-emergence, 240 h, postemergence", "outline": "as §1"}, "[3]": {"system": "Kochia (Kochia scoparia)", "experiment": "Test A postemergence", "conditions": "Bassia scoparia, post-emergence, 240 h, postemergence", "outline": "as §1"}, "[4]": {"system": "ragweed (common ragweed, Ambrosia elatior)", "experiment": "Test A postemergence", "conditions": "Ambrosia artemisiifolia, post-emergence, 240 h, postemergence", "outline": "as §1"}, "[5]": {"system": "Galium (catchweed bedstraw, Galium aparine)", "experiment": "Test A postemergence", "conditions": "Galium, post-emergence, 240 h, postemergence", "outline": "as §1"}, "[6]": {"system": "wheat (Triticum aestivum)", "experiment": "Test A postemergence", "conditions": "Triticum aestivum, post-emergence, 240 h, 125 g ai/ha, postemergence, visual injury vs untreated controls after approx. 10 d; 0 = no effect, 100 = complete control; read-out: Wheat plant response rating (0 to 100 scale)", "outline": "as §1"}, "[7]": {"system": "blackgrass (Alopecurus myosuroides)", "experiment": "Test A postemergence", "conditions": "Alopecurus myosuroides, post-emergence, 240 h, postemergence", "outline": "as §1"}, "[8]": {"system": "corn (Zea mays)", "experiment": "Test A postemergence", "conditions": "Zea mays, post-emergence, 240 h, postemergence", "outline": "as §1"}, "[9]": {"system": "ryegrass, Italian (Italian ryegrass, Lolium multiflorum)", "experiment": "Test A postemergence", "conditions": "Lolium multiflorum, post-emergence, 240 h, postemergence", "outline": "as §1"}, "[10]": {"system": "giant foxtail (Setaria faberii)", "experiment": "Test A postemergence", "conditions": "Setaria faberi, post-emergence, 240 h, postemergence", "outline": "as §1"}, "[11]": {"system": "pigweed (Amaranthus retroflexus)", "experiment": "Test A preemergence", "conditions": "Amaranthus retroflexus, pre-emergence, 240 h, preemergence, 0 to 100 scale where 0 is no effect and 100 is complete control, read-out: Pigweed plant response rating"}, "[12]": {"system": "Kochia (Kochia scoparia)", "experiment": "Test A preemergence", "conditions": "Bassia scoparia, pre-emergence, 240 h, preemergence, 0 to 100 scale where 0 is no effect and 100 is complete control, read-out: Kochia plant response rating", "outline": "as §1"}, "[13]": {"system": "ragweed (common ragweed, Ambrosia elatior)", "experiment": "Test A preemergence", "conditions": "Ambrosia artemisiifolia, pre-emergence, 240 h, preemergence, 0 to 100 scale where 0 is no effect and 100 is complete control, read-out: Ragweed plant response rating", "outline": "as §1"}, "[14]": {"system": "ryegrass, Italian (Italian ryegrass, Lolium multiflorum)", "experiment": "Test A preemergence", "conditions": "Lolium multiflorum, pre-emergence, 240 h, preemergence, 0 to 100 scale where 0 is no effect and 100 is complete control, read-out: Ryegrass, Italian plant response rating", "outline": "as §1"}, "[15]": {"system": "giant foxtail (Setaria faberii)", "experiment": "Test A preemergence", "conditions": "Setaria faberi, pre-emergence, 240 h, preemergence, 0 to 100 scale where 0 is no effect and 100 is complete control, read-out: Foxtail, Giant plant response rating", "outline": "as §1"}, "[16]": {"conditions": "125 g ai/ha, visual injury rating, approximately 10 d"}}}
{"smiles": "O=C1NC[C@H](c2ccc(C(F)(F)F)cc2)C1C(=O)Nc1ccccc1CO", "note": "(some centres unmarked) [Compound 1242]", "values": [{"measurement": "pest or weed control at 125 g/ha", "setting": "[1]; 125 g ai/ha, visual injury vs untreated controls after approx. 10 d, 0 = no effect, 100 = complete control, read-out: Barnyardgrass plant response rating (0 to 100 scale)", "result": 20, "unit": "%"}, {"measurement": "pest or weed control at 500 g/ha", "setting": "[1]; 500 g ai/ha, 0 to 100 scale, 0 is no effect, 100 is complete control, read-out: Barnyardgrass plant response rating", "result": 40, "unit": "%"}, {"measurement": "pest or weed control at 125 g/ha", "setting": "[2]; 125 g ai/ha, visual injury vs untreated controls after approx. 10 d, 0 = no effect, 100 = complete control, read-out: Pigweed plant response rating (0 to 100 scale)", "result": 0, "unit": "%"}, {"measurement": "pest or weed control at 500 g/ha", "setting": "[2]; 500 g ai/ha, 0 to 100 scale, 0 is no effect, 100 is complete control, read-out: Pigweed plant response rating", "result": 0, "unit": "%"}, {"measurement": "pest or weed control at 125 g/ha", "setting": "[3]; 125 g ai/ha, visual injury vs untreated controls after approx. 10 d, 0 = no effect, 100 = complete control, read-out: Kochia plant response rating (0 to 100 scale)", "result": 0, "unit": "%"}, {"measurement": "pest or weed control at 500 g/ha", "setting": "[3]; 500 g ai/ha, 0 to 100 scale, 0 is no effect, 100 is complete control, read-out: Kochia plant response rating", "result": 0, "unit": "%"}, {"measurement": "pest or weed control at 125 g/ha", "setting": "[4]; 125 g ai/ha, visual injury vs untreated controls after approx. 10 d, 0 = no effect, 100 = complete control, read-out: Ragweed plant response rating (0 to 100 scale)", "result": 0, "unit": "%"}, {"measurement": "pest or weed control at 500 g/ha", "setting": "[4]; 500 g ai/ha, 0 to 100 scale, 0 is no effect, 100 is complete control, read-out: Ragweed plant response rating", "result": 0, "unit": "%"}, {"measurement": "pest or weed control at 125 g/ha", "setting": "[5]; 125 g ai/ha, visual injury vs untreated controls after approx. 10 d, 0 = no effect, 100 = complete control, read-out: Galium plant response rating (0 to 100 scale)", "result": 0, "unit": "%"}, {"measurement": "pest or weed control at 500 g/ha", "setting": "[5]; 500 g ai/ha, 0 to 100 scale, 0 is no effect, 100 is complete control, read-out: Galium plant response rating", "result": 20, "unit": "%"}, {"measurement": "plant injury at 125 g/ha", "setting": "[6]", "result": 0, "unit": "%"}, {"measurement": "pest or weed control at 125 g/ha", "setting": "[7]; 125 g ai/ha, visual injury vs untreated controls after approx. 10 d, 0 = no effect, 100 = complete control, read-out: Blackgrass plant response rating (0 to 100 scale)", "result": 0, "unit": "%"}, {"measurement": "pest or weed control at 500 g/ha", "setting": "[7]; 500 g ai/ha, 0 to 100 scale, 0 is no effect, 100 is complete control, read-out: Blackgrass plant response rating", "result": 0, "unit": "%"}, {"measurement": "plant injury at 125 g/ha", "setting": "[8]; 125 g ai/ha, visual injury vs untreated controls after approx. 10 d, 0 = no effect, 100 = complete control, read-out: Corn plant response rating (0 to 100 scale)", "result": 0, "unit": "%"}, {"measurement": "plant injury at 500 g/ha", "setting": "[8]; 500 g ai/ha, 0 to 100 scale, 0 is no effect, 100 is complete control, read-out: Corn plant response rating", "result": 0, "unit": "%"}, {"measurement": "pest or weed control at 125 g/ha", "setting": "[9]; 125 g ai/ha, visual injury vs untreated controls after approx. 10 d, 0 = no effect, 100 = complete control, read-out: Ryegrass, Italian plant response rating (0 to 100 scale)", "result": 0, "unit": "%"}, {"measurement": "pest or weed control at 500 g/ha", "setting": "[9]; 500 g ai/ha, 0 to 100 scale, 0 is no effect, 100 is complete control, read-out: Ryegrass, Italian plant response rating", "result": 0, "unit": "%"}, {"measurement": "pest or weed control at 125 g/ha", "setting": "[10]; 125 g ai/ha, visual injury vs untreated controls after approx. 10 d, 0 = no effect, 100 = complete control, read-out: Foxtail, Giant plant response rating (0 to 100 scale)", "result": 20, "unit": "%"}, {"measurement": "pest or weed control at 500 g/ha", "setting": "[10]; 500 g ai/ha, 0 to 100 scale, 0 is no effect, 100 is complete control, read-out: Foxtail, Giant plant response rating", "result": 50, "unit": "%"}, {"measurement": "pest or weed control at 125 g/ha", "setting": "[11]; [16]", "result": 0, "unit": "%"}, {"measurement": "pest or weed control at 500 g/ha", "setting": "[11]; 500 g ai/ha", "result": 0, "unit": "%"}, {"measurement": "pest or weed control at 125 g/ha", "setting": "[12]; [16]", "result": 0, "unit": "%"}, {"measurement": "pest or weed control at 500 g/ha", "setting": "[12]; 500 g ai/ha", "result": 0, "unit": "%"}, {"measurement": "pest or weed control at 125 g/ha", "setting": "[13]; [16]", "result": 0, "unit": "%"}, {"measurement": "pest or weed control at 500 g/ha", "setting": "[13]; 500 g ai/ha", "result": 0, "unit": "%"}, {"measurement": "pest or weed control at 125 g/ha", "setting": "[14]; [16]", "result": 0, "unit": "%"}, {"measurement": "pest or weed control at 500 g/ha", "setting": "[14]; 500 g ai/ha", "result": 0, "unit": "%"}, {"measurement": "pest or weed control at 125 g/ha", "setting": "[15]; [16]", "result": 30, "unit": "%"}, {"measurement": "pest or weed control at 500 g/ha", "setting": "[15]; 500 g ai/ha", "result": 80, "unit": "%"}]}
